Measurements reported in paper PMC5796017, “Enantiomeric Effect of D-Amino Acid Substitution on the Mechanism of Action of α-Helical Membrane-Active Peptides” (International Journal of Molecular Sciences, 2017).
In brackets after ≈: the same amount, converted by molar mass.

Key:
[1] = RP-HPLC retention time as relative hydrophobicity; assay type: physicochemical; settings: 25 °C, used by the paper as measure of relative hydrophobicity
Description: The RP-HPLC retention time has been widely used to represent the relative hydrophobicity of peptides in many studies.The relative hydrophobicity of the peptides was determined by the RP-HPLC retention times at 25 °C. The change in hydrophobicity of the peptides caused by D-amino acid substitutions was mainly due to the disruption of the helical structure.

[2] = Circular dichroism (CD) secondary structure; assay type: physicochemical
Source text: The influence of the amino acid substitutions on the peptide secondary structure were investigated using circular dichroism (CD) spectroscopy under benign conditions (KP buffer) and under conditions designed to mimic the hydrophobic environment of the membrane (KP buffer with 50% TFE). D-amino acid substitutions reduced the helicity of the peptide analogs relative to that of peptide V13K, in both KP buffer and KP buffer with 50% TFE. […] As shown in Table 2 and Figure S1, the values of the relative helicity of peptides with polar face substitutions are in the order of K14D (76.99%) > S11D/K14D (51.33%) > S11D/K14D/T15D (38.67%). Similarly, the relative helicity of the peptides with substitutions on the non-polar face follows the same trend: A12D (70.83%) > F9D/A12D (38.26%) > F9D/A12D/V16D (36.41%). Since the values of the relative helicity of the peptides with D-amino acid substitutions on the non-polar face were less than those peptide analogs with the same number of D-amino acid substitutions on the polar face, it is clear that the amino acid residues on the non-polar face may be more important for stabilizing the α-helical structure than residues on the polar face.
The secondary structures of the peptides were examined using a Jasco J-810 CD spectrometer (Jasco, Easton, MD, USA) at 25 °C as described previously. […] The mean residue molar ellipticities were calculated according to the equation [θ] = θ/10lCMn, in which, θ represents the ellipticity in millidegrees, l is the optical path length of the cuvette in centimeters, CM is the peptide concentration in mol/L, and n is the number of residues in the peptide. The mean residue molar ellipticities at 222 nm, [θ]222 (degree·cm^2·dmol^−1), were used to calculate the relative helical content of the peptides.

S. aureus ATCC25923 = assay: Antimicrobial activity, microtiter dilution MIC; assay type: cell-based, Staphylococcus aureus; settings: G+; MH medium, 5 × 10^5 CFU/mL, 37 °C, 24 h, triplicate
Description: (§1) The antimicrobial activity of the peptides was determined by the standard microtiter dilution method and indicated as MIC (minimal inhibitory concentration) as described previously. Briefly, bacteria were cultured in Mueller–Hinton (MH) medium overnight at 37 °C, diluted to a final inoculum of 5 × 10^5 colony-forming units (CFU)/mL with MH and loaded into 96-well microtiter plates (90 μL/well) with serial dilution of peptides (10 μL/well), with a further incubation at 37 °C for 24 h. MIC was expressed as the lowest peptide concentration that inhibited the growth of bacteria. The antimicrobial assays were repeated in triplicate.

S. epidermidis ATCC12228 = assay: Antimicrobial activity, microtiter dilution MIC; assay type: cell-based, Staphylococcus epidermidis; settings: G+; MH medium, 5 × 10^5 CFU/mL, 37 °C, 24 h, triplicate
Description: as §1

P. aeruginosa ATCC27853 = assay: Antimicrobial activity, microtiter dilution MIC; assay type: cell-based, Pseudomonas aeruginosa; settings: G−; MH medium, 5 × 10^5 CFU/mL, 37 °C, 24 h, triplicate
Description: as §1

E. coli ATCC25922 [3] = assay: Antimicrobial activity, microtiter dilution MIC; assay type: cell-based, Escherichia coli; settings: G−; MH medium, 5 × 10^5 CFU/mL, 37 °C, 24 h, triplicate
Description: as §1

[4] = tested on: human red blood (hRBC) cells; assay: Hemolytic activity assay; assay type: cell-based; settings: 2% human RBC in PBS, 37 °C, 2 h, absorbance 578 nm, triplicate
Description: The […] of the peptides was measured by a hemolytic activity assay as described previously. Briefly, healthy human RBCs were collected using an anticoagulation tube with EDTAK2 and centrifuged at 1000 rpm for 5 min. The erythrocytes were washed three times, then diluted to a concentration of 2% in phosphate-buffered saline (PBS). The peptides were serially diluted in PBS and 70 μL of the peptide solutions and 2% RBC suspension were added simultaneously to each well of a 96-well plate (round bottom) for a further incubation at 37 °C for 2 h. Then, the plates were centrifuged for 10 min at 3000 rpm and the supernatant (90 μL) was transferred to a 96-well plate (flat bottom). The absorbance of the supernatant was measured on a microplate reader at 578 nm. Erythrocytes in PBS and distilled water were used as the negative (0%) and positive (100%) controls, respectively. The hemolytic activity was calculated as the percentage of experimental group over positive control (100%), after subtraction of negative control (0%). The hemolytic assays were repeated in triplicate.

BxPC-3 = assay: MTT cell viability assay; assay type: cell-based, human; settings: BxPC-3, MTT, 24 h; mean ± SEM of three independent determinations
Description: (§2) HeLa, MIA PaCa-2, HPAC, and Bxpc-3 cells were maintained in Dulbecco’s modified Eagle medium) with 10% fetal bovine serum, penicillin (100 U/mL), and streptomycin ([…]) in a humid atmosphere at 37 °C with 5% CO2. The effect of the peptides on the survival of HeLa, MIA PaCa-2, HPAC, and Bxpc-3 cells was determined by 3-(4,5-dimethyl-2-thiazolyl)-2,5-diphenyl-2H-tetrazolium bromide (MTT) assay, as described in a previous study. Briefly, cells were seeded in 96-well plates at a density of 5000 per well. After overnight incubation, cells were incubated, in the absence, or presence of various concentrations of peptides for 24 h. Then, the formazan crystals formed by MTT were dissolved with dimethyl sulfoxide (DMSO) and the absorbance was determined at 492 nm with a microplate reader (GF-M3000; Gaomi Caihong Analytical Instruments Co., Shandong, China). The results were expressed as IC50 values, representing the concentration at which cell viability was reduced by 50%. The cytotoxicity assays were repeated in triplicate.

HPAC = assay: MTT cell viability assay; assay type: cell-based, human; settings: 24 h, mean ± SEM of three independent determinations
Description: as §2

HeLa = assay: MTT cell viability assay; assay type: cell-based, human; settings: 24 h, mean ± SEM of three independent determinations
Description: as §2

MIA PaCa-2 = assay: MTT cell viability assay; assay type: cell-based, human; settings: MIA PaCa-2, MTT, 24 h; mean ± SEM of three independent determinations
Description: as §2

E. coli ATCC25922 [5] = assay: Outer membrane permeability assay (NPN uptake); assay type: cell-based, Escherichia coli; settings: 16 μM peptide, 10 min, excitation 350 nm, emission 420 nm
Source text: To explore the potential role of the helicity of the peptides in damaging cell membranes, we investigated the disruption of the outer membrane of Escherichia coli (E. coli) by quantifying the fluorescence intensity of 1-N-phenylnaphthylamine (NPN), which is a hydrophobic fluorescent probe. The intensity of NPN is weak in a hydrophilic environment. The fluorescence intensity of NPN gradually increases as it is exposed to a more hydrophobic environment due to damage to the bacterial outer membrane by MAPs.
The outer membrane permeability of the peptides against E. coli ATCC25922 was evaluated using the hydrophobic fluorescent probe NPN, as performed previously. In brief, E. coli was cultured in LB medium at 37 °C until the absorbance of the bacterial suspension at 600 nm was 0.4–0.6, the bacterial pellet was collected by centrifugation and resuspended in a reaction buffer (pH 7.4, 5 mM HEPES, 5 mM NaN3, 0.25 mM NPN) until the absorbance at 600 nm was 0.5. Then, an aliquot of the peptide sample and the bacterial suspension were co-incubated to give a final peptide concentration of 16 μM. The same volume of reaction buffer was used as the negative control. A Shimadzu RF-5301 PC fluorescent spectrometer (excitation wavelength of 350 nm, emission wavelength of 420 nm) was used to collect data continuously for 10 min.

In the case of `CC[C@H](C)[C@H](NC(=O)[C@H](C)NC(=O)[C@H](CCCCN)NC(=O)[C@H](CC(C)C)NC(=O)[C@H](C)NC(=O)[C@@H](NC(=O)[C@H](Cc1c[nH]cn1)NC(=O)[C@H](CC(C)C)NC(=O)[C@@H](NC(=O)[C@@H](NC(=O)[C@@H](CCCCN)NC(=O)[C@H](CCCCN)NC(=O)[C@H](C)NC(=O)[C@H](CO)NC(=O)[C@H](CCCCN)NC(=O)[C@H](Cc1ccccc1)NC(=O)[C@@H](NC(=O)[C@H](CCCCN)NC(=O)[C@H](CC(C)C)NC(=O)[C@H](Cc1ccccc1)NC(=O)[C@H](CO)NC(=O)[C@H](CCCCN)NC(=O)[C@H](Cc1c[nH]c2ccccc12)NC(=O)[C@H](CCCCN)NC(C)=O)[C@@H](C)O)[C@@H](C)O)C(C)C)[C@@H](C)O)C(=O)N[C@@H](CO)C(=O)N[C@@H](CO)C(N)=O` [Peptide K14D], the “tR (RP-HPLC retention time), relative hydrophobicity” value [1] is reported as 41.93 min, the “[θ]222, benign” value ([2]; CD, KP buffer (100 mM KCl, 50 mM KH2PO4/K2HPO4, pH 7.4), 75 μM peptide, 25 °C) is reported as −2223.13 degree·cm^2·dmol^−1 and the “[θ]222, 50% TFE” value ([2]; CD, KP buffer with 50% TFE, 75 μM peptide, 25 °C) is reported as −38,897.2 degree·cm^2·dmol^−1. For the same compound, the “α-Helix (%), 50% TFE (relative helicity)” value ([2]; KP buffer with 50% TFE, relative to molar ellipticity of V13K in 50% TFE) was 76.99%, the “α-Helix (%), benign” value ([2]; KP buffer, relative to molar ellipticity of V13K in 50% TFE) was 4.4% and the MIC (S. aureus ATCC25923) was 32 µM (≈ 95.7 µg/mL). For the same compound, the MIC (S. epidermidis ATCC12228) was 16 µM (≈ 47.9 µg/mL), the MIC (P. aeruginosa ATCC27853) was 16 µM (≈ 47.9 µg/mL) and the MIC (E. coli ATCC25922 [3]) was 32 µM (≈ 95.7 µg/mL). For the same compound, the “MHC (minimal hemolytic concentration)” value [4] was 125 µM, the IC50 (BxPC-3) was 20 ± 0.8 µM and the IC50 (HPAC) was 7.2 ± 5.2 µM. For the same compound, the IC50 (HeLa) was 15.6 ± 4.1 µM, the IC50 (MIA PaCa-2) was 17.9 ± 2.3 µM and the “Outer membrane permeabilization, NPN fluorescence intensity” value (E. coli ATCC25922 [5]) was “enhanced”.
